Consider six compounds from patent publication US20050186135A1, “Compositions, methods, apparatuses, and systems for singlet oxygen delivery” (priority 2001, published 2005).

For one data set, the system named is influenzal pneumonia. The settings on record: intravenous hydrogen peroxide solution, Oliver 1920; cited from earlier work.
For another data set, the system named is a single cell. Particulars: Oseroff et al. 1986; cited from earlier work.
The conditions of data set [1]: stated as believed; cited from earlier work.
In another data set the test system is tumor growth. Particulars: mice, Altermatt et al. 1990; cited from earlier work.
For data set [2] the following is noted: in vivo; cited from earlier work.
For data set [3] the following is noted: Ameta et al. 1990; Parker and Stanbro 1984; cited from earlier work.
Another data set relates to mitosis. Particulars: Lamprecht et al. 1990; cited from earlier work.
The test system of data set [4] is coronary artery blocked with sclerotic plaque. As to the kind of experiment: Treatment of Sclerotic Plaque I: cadaver artery section in test tube. The settings on record: 2 ml of 6% sodium hypochlorite, shaken one minute. On the set-up: species or system human.
Text: A coronary artery blocked with sclerotic plaque, taken from a human cadaver, was chosen as a target site for treatment. The coronary artery was grayish pink in color and suspended in a formaldehyde preservative. It was surrounded with fatty tissue of an irregular shape, which measured approximately 1 cm in its widest dimension. It measured 0.6 cm in length and 0.5 cm diameter. The lumen of the vessel was completed occluded with sclerotic plaque.
The cross section of coronary artery was placed in a test tube containing 2 ml of 6% of sodium hypochlorite and was shaken for one minute. […] This preparation was then again shaken.
For the next data set, the system named is skin keratosis lesion. Nature of the data set: Treatment of Keratosis I: intralesional injection. The settings on record: 0.4 ml of 6% sodium hypochlorite alone into center of ~1.25 cm lesion. Type of data set: in vivo, human. As for the experimental part:
A skin keratosis lesion measuring approximately 1.25 cm in diameter was chosen as a target for treatment. The lesion was located on the left temple of a person.
Using a 30-gauge hypodermic needle, 0.4 ml of a 6% solution of sodium hypochlorite was injected into the center of the lesion. […] See FIG. 20 for a photo of the area immediately following the injection.
Immediately after the first injection, using a 30-gauge hypodermic needle, 0.4 ml of a 3% solution of hydrogen peroxide was injected into the center of the lesion. […] See FIG. 21 for a photo of the area immediately following the injection.

Data set [5] concerns coronary artery blocked with sclerotic plaque. As to the kind of experiment: Treatment of Sclerotic Plaque II: hypochlorite alone, then peroxide added. On the set-up: species or system human. Particulars: 2 ml of 6% sodium hypochlorite alone. As for the experimental part: The following tests were performed to corroborate that the singlet oxygen produced by the hydrogen peroxide and the sodium hypochlorite had actually cleared and opened the human coronary artery blocked with the sclerotic plaque.
Like Example 3, a coronary artery blocked with sclerotic plaque, taken from a human cadaver, was prepared as a target site for treatment. The coronary artery was grayish pink in color and suspended in a formaldehyde preservative. It was surrounded with fatty tissue of an irregular shape, which measured 1.1 cm in its widest dimension. It measured approximately 0.6 cm in length and 0.5 cm in diameter. The lumen of the vessel was completed occluded with sclerotic plaque.
The human coronary artery with the plaque was first treated with 2 ml of 6% solution of sodium hypochlorite alone.
Immediately after the treatment with the sodium hypochlorite, 2 ml of 3% solution of hydrogen peroxide was added to the 2 ml of 6% solution of sodium hypochlorite containing the human coronary artery with the plaque.

For data set [6] the following is noted: gives peroxyl and/or alkoxyl radicals; Noguchi et al. 2002; cited from earlier work.
For another data set, the system named is atherosclerosis. Particulars: in vivo; cited from earlier work.

Structures are written as SMILES.

In the case of `OO` [hydrogen peroxide], the treatment success result in the data set on influenzal pneumonia was “high rate of success”.
`O=O` [singlet oxygen]: in the data set with a single cell, the “molecules of singlet oxygen necessary to kill a single cell” value was 10^10 molecules. Moreover, the “lifetime of singlet oxygen” value in [1] is “about 50 nanoseconds”.
With `[2H]O[2H]` [D2O, deuterium oxide], the “effect on rate of tumor growth” value with tumor growth is “can depress the rate of tumor growth in mice”. Further, in data set [2], the safety in infants entry is on record as “safe” and the toxicity in mammals entry was “low toxicity”. For the same compound, the “effect on lifetime of singlet oxygen” value in data set [3] is on record as “can increase the lifetime of singlet oxygen”. The effect on mitosis result in the data set on mitosis was “anti-mitotic effect optimized between anaphase and metaphase”.
Turning to `OCl` [sodium hypochlorite], the “solubilization by hypochlorite alone” value in data set [4] is recorded as “minimal solubilization of the surrounding fatty tissue of the vessel”. Moreover, the “bleeding at injection site” value in the data set on skin keratosis lesion was “minor bleeding at the lower border of the injection site”. In the data set on skin keratosis lesion (30-gauge needle), the sensation on injection result was “mild burning sensation”. For the same compound, in data set [5], the “change of plaque with hypochlorite alone” value is on record as “no significant changes occurred to the plaque”.
`CC(C)(C)OO` [tert-butyl hydroperoxide]: in data set [6], the “formation of singlet oxygen on reaction with hypochlorite” value is reported as “little formation of singlet oxygen”.
As to `CC(=O)[O-].CC(=O)[O-].CCc1c(CC)c2cc3nc(cnc4cc(OCCOCCOCCOC)c(OCCOCCOCCOC)cc4ncc4nc(cc1[n-]2)C(CCCO)=C4C)C(C)=C3CCCO.O.[Lu+3]` [Antrin, motexafin lutetium], in the data set with atherosclerosis, the “feasibility and tolerability of photoangioplasty” value is “feasible and well tolerated”.
